Source: article doi:10.1101/2024.08.13.607785v1 (biorxiv, 2024)

Experiments:
Parameters in all cases: species or system mixed lysate of K562, MV4-11, THP-1, NCI-H1155
[1] = target: Activated CDC42 kinase 1 ; TNK2 ; Q07912 (Homo sapiens, UniProt Q07912); conditions: DIA-MS residual binding; binder
[2] = target: Dual specificity testis-specific protein kinase 1 ; TESK1 ; Q15569 (Homo sapiens, UniProt Q15569); conditions: DIA-MS residual binding; binder
[3] = target: Ephrin type-A receptor 1 ; EPHA1 ; P21709 (Homo sapiens, UniProt P21709); conditions: DIA-MS residual binding; binder
Chain of Ephrin type-A receptor 1 ; EPHA1 ; P21709 (P21709 whole entry): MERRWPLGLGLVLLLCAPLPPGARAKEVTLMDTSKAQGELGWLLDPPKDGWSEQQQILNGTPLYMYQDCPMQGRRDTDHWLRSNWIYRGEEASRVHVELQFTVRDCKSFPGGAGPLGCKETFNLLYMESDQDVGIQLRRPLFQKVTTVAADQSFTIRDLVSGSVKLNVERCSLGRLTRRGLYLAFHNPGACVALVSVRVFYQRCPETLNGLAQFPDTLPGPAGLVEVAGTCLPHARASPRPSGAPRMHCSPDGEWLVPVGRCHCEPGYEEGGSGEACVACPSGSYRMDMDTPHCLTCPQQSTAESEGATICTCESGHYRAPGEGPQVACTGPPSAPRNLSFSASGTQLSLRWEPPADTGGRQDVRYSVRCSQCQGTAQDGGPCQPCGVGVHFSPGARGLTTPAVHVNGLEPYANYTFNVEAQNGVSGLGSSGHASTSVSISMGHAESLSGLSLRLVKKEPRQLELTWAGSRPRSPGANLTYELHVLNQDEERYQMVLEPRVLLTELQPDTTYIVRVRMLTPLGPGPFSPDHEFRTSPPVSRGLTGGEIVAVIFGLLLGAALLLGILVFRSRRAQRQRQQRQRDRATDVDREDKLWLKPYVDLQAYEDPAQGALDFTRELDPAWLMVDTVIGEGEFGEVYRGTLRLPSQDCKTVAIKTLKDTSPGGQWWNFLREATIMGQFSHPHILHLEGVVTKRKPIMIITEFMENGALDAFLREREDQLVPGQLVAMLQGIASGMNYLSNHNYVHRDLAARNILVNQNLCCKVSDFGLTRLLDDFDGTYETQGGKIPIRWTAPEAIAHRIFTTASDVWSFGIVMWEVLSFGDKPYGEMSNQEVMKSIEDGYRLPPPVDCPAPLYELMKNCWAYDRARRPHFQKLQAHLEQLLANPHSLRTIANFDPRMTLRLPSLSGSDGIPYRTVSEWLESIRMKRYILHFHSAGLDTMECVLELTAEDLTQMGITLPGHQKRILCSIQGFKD

[4] = target: T1, Ephrin type-B receptor 1 ; EPHB1 ; P54762 (Homo sapiens, UniProt P54762); conditions: DIA-MS residual binding; binder
T1 sequence (P54762 1-984): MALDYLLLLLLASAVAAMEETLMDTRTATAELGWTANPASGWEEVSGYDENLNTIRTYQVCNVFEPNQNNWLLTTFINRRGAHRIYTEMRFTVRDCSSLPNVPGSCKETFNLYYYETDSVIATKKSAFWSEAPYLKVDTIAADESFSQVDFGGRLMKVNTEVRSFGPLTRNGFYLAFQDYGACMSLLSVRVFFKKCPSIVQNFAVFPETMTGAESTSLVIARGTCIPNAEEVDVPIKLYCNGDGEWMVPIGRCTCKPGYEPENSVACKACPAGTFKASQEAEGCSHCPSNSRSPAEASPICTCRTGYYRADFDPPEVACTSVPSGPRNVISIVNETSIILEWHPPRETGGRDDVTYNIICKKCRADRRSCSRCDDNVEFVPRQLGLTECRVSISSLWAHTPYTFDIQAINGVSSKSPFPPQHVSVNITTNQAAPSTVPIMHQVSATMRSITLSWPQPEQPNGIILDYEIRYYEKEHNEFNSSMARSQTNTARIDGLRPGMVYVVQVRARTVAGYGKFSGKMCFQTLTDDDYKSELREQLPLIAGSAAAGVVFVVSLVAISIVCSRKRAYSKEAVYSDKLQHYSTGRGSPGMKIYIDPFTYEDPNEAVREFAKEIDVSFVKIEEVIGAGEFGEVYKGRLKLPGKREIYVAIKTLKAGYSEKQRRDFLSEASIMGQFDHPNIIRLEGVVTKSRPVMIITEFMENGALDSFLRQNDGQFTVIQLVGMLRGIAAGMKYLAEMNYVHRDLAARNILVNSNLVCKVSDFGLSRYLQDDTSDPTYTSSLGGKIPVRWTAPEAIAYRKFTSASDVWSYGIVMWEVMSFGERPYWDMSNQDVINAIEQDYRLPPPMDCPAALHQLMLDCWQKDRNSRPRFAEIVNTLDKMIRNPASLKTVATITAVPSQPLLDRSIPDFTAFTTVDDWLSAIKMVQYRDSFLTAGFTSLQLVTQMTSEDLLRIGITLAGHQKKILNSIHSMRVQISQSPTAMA

[5] = target: Epithelial discoidin domain-containing receptor 1 ; DDR1 ; Q08345 (Homo sapiens, UniProt Q08345); conditions: binder
[6] = target: Isoform 3 of Serine/threonine-protein kinase SIK3 ; SIK3-7 ; Q9Y2K2-7 (Homo sapiens, UniProt Q9Y2K2); conditions: DIA-MS residual binding; binder
Chain of Isoform 3 of Serine/threonine-protein kinase SIK3 ; SIK3-7 ; Q9Y2K2-7 (Q9Y2K2 whole entry, canonical isoform, one chain of several): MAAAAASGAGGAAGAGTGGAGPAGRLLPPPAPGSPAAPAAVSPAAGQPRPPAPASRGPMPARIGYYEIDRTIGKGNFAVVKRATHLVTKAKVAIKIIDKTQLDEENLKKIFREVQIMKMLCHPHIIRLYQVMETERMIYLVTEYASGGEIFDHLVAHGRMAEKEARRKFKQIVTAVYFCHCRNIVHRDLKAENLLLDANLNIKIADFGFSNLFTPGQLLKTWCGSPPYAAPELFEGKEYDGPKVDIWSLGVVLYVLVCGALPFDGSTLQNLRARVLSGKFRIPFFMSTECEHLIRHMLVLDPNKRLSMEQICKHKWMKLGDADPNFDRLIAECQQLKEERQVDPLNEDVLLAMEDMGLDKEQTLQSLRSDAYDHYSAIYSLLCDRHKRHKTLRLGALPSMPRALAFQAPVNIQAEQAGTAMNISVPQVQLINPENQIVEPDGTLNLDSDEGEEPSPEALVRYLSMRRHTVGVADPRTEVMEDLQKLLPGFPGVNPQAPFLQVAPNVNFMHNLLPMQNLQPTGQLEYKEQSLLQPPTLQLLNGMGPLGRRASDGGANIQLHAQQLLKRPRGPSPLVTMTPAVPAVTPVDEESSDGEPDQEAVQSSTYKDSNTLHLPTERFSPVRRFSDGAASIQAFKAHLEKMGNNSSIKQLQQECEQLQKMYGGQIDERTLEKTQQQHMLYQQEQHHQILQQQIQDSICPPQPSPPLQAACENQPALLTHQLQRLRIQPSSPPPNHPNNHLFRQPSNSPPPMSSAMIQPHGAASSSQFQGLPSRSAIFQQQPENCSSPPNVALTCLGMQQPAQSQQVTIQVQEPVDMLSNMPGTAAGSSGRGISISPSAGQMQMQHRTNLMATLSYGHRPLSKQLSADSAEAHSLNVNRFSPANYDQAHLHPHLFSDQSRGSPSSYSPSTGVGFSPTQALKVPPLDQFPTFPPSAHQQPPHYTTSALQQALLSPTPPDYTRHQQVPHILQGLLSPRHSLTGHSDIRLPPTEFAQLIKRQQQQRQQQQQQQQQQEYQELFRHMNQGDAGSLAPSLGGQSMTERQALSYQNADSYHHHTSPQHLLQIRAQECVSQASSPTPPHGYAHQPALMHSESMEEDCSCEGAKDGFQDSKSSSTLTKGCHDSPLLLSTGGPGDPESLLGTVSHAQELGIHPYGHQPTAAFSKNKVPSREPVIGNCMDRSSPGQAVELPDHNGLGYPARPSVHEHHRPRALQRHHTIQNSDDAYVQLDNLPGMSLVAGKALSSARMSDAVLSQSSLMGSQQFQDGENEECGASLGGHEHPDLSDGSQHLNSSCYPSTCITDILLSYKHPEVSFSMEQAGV

[7] = target: MAP kinase-interacting serine/threonine-protein kinase 1 ; MKNK1 ; Q9BUB5 (Homo sapiens, UniProt Q9BUB5); conditions: binder
[8] = target: Mitogen-activated protein kinase 14 ; MAPK14 ; Q16539 (Homo sapiens, UniProt Q16539); conditions: DIA-MS residual binding; binder
Chain of Mitogen-activated protein kinase 14 ; MAPK14 ; Q16539 (Q16539 whole entry): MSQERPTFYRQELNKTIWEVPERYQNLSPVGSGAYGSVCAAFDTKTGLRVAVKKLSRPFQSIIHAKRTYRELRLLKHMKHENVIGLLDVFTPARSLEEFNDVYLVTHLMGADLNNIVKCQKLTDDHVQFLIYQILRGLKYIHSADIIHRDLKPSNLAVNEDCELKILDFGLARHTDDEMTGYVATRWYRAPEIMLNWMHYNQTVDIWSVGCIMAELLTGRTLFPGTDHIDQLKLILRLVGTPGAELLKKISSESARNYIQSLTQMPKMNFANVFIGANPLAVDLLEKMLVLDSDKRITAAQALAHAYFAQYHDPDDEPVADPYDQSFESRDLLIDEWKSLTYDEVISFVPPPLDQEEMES

[9] = target: Receptor-interacting serine/threonine-protein kinase 2 ; RIPK2 ; O43353 (Homo sapiens, UniProt O43353); conditions: DIA-MS residual binding; binder
Chain of Receptor-interacting serine/threonine-protein kinase 2 ; RIPK2 ; O43353 (O43353 whole entry, one chain of several): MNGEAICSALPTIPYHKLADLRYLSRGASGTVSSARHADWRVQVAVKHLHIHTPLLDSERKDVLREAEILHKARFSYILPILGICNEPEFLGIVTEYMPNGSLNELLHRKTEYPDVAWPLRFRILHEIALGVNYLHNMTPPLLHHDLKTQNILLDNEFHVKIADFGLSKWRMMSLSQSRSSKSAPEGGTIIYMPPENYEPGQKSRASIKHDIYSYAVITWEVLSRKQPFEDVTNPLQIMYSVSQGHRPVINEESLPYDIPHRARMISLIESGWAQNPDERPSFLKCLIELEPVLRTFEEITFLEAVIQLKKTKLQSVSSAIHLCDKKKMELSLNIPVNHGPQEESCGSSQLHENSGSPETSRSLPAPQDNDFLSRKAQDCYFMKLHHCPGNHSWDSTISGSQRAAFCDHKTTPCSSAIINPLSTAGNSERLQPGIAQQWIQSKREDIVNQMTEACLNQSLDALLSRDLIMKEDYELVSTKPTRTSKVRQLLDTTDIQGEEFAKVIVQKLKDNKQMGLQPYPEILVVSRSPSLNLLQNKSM

[10] = target: T2, Serine/threonine-protein kinase NLK ; NLK ; Q9UBE8 (Homo sapiens, UniProt Q9UBE8); conditions: DIA-MS residual binding; binder
T2 sequence (Q9UBE8 1-527): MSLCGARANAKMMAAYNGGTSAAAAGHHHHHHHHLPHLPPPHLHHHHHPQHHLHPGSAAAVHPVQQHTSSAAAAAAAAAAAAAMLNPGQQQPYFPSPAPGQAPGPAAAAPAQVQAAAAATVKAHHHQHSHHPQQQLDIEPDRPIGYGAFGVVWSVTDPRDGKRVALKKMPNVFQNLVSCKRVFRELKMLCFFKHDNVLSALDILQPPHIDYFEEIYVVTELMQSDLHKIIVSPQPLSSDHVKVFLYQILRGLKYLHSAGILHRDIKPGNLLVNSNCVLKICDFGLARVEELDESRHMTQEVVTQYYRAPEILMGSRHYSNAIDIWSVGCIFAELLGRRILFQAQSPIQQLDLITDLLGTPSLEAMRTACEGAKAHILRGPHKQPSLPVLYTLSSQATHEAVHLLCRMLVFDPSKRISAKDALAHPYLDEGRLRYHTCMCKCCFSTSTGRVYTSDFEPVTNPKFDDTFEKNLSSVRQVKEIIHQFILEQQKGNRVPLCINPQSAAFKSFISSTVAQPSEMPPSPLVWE

[11] = target: Serine/threonine-protein kinase SIK2 ; SIK2 ; Q9H0K1 (Homo sapiens, UniProt Q9H0K1); conditions: DIA-MS residual binding; binder

Chain of Dual specificity testis-specific protein kinase 1 ; TESK1 ; Q15569 (Q15569 whole entry): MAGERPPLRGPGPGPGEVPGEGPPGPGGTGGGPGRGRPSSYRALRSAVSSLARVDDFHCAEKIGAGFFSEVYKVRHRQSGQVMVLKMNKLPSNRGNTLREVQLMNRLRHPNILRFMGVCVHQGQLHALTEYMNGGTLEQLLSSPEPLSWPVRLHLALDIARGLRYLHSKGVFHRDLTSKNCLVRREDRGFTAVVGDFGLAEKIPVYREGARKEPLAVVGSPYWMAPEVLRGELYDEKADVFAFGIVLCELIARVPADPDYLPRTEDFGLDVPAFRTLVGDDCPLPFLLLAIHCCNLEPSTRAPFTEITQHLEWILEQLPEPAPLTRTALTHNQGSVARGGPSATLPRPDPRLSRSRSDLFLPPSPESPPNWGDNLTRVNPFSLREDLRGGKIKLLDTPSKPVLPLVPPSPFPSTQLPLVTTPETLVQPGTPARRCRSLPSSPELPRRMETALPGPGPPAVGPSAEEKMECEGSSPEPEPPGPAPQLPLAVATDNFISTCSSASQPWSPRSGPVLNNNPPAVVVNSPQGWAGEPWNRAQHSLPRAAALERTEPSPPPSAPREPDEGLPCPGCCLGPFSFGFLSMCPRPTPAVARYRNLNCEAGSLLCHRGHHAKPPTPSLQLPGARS
Chain of Activated CDC42 kinase 1 ; TNK2 ; Q07912 (Q07912 whole entry): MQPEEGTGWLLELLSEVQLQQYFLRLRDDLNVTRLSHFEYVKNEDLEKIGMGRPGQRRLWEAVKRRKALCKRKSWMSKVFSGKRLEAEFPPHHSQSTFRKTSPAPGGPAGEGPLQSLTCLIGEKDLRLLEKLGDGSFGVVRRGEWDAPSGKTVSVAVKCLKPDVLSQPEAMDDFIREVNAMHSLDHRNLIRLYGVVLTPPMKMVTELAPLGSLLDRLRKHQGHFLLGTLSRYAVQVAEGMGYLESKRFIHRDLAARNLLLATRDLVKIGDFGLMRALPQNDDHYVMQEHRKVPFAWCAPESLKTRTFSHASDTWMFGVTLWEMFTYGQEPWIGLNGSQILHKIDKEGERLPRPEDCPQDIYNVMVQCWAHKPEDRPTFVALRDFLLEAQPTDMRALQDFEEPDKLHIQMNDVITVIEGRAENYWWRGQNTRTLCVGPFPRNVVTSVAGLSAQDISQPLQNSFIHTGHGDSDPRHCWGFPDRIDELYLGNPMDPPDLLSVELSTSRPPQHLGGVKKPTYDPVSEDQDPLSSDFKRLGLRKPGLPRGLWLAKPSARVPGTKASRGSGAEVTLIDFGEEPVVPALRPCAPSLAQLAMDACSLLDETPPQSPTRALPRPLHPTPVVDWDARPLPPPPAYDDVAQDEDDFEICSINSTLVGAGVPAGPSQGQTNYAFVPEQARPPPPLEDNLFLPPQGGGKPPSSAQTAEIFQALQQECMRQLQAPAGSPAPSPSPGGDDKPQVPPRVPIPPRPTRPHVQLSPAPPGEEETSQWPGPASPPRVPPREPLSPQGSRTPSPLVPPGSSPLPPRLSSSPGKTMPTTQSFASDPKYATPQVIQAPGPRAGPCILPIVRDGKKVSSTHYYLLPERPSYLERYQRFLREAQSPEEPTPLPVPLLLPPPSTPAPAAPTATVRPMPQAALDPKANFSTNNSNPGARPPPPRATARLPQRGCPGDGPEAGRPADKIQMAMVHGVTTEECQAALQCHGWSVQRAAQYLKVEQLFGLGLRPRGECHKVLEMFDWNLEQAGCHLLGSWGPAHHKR

Cc1nc(Nc2ncc(C(=O)Nc3c(C)cccc3Cl)s2)cc(N2CCN(CCO)CC2)n1 [dasatinib]
DIA-MS / % Intensity (30 µM/DMSO) [1]: 2.81%
DIA-MS / % Intensity (30 µM/DMSO) [2]: 14.82%
DIA-MS / % Intensity (30 µM/DMSO) [3]: 39.55%
DIA-MS / % Intensity (30 µM/DMSO) [4]: 6.728%
DIA-MS / % Intensity (30 µM/DMSO) [5]: 2.942%
DIA-MS / % Intensity (30 µM/DMSO) [6]: 12.26%
DIA-MS / % Intensity (30 µM/DMSO) [7]: 27.84%
DIA-MS / % Intensity (30 µM/DMSO) [8]: 32.28%
DIA-MS / % Intensity (30 µM/DMSO) [9]: 2.357%
DIA-MS / % Intensity (30 µM/DMSO) [10]: 47.56%
DIA-MS / % Intensity (30 µM/DMSO) [11]: 2.882%
